The test concerns the target T1, human vasopressin V2 receptor subtype (Homo sapiens, UniProt P30518).
T1 construct: host or cells: CHO cells (pZeoSV vector)
As to the kind of experiment: Vasopressin binding in Chinese Hamster Ovary cell membranes expressing human vasopressin V2 subtype receptors. Conditions: 100 nM, CHO cell membranes, [3H]arginine vasopressin, values without parentheses. An outline of the steps: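 Radioligand displacement on membranes from CHO cells stably expressing human V2 receptor, 25 to 50 μg protein/well, in 50 mM Tris-HCl pH 7.4 with MgCl2, BSA and protease inhibitors. [^3H]arginine vasopressin (8 nM working solution) incubated 60 min at room temperature; bound label measured by filtration and scintillation counting.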

The values that follow come from US7109193B2, “Tricyclic diazepines tocolytic oxytocin receptor antagonists” (Wyeth, priority 2001, dated 2006).

T1 sequence (P30518 whole entry): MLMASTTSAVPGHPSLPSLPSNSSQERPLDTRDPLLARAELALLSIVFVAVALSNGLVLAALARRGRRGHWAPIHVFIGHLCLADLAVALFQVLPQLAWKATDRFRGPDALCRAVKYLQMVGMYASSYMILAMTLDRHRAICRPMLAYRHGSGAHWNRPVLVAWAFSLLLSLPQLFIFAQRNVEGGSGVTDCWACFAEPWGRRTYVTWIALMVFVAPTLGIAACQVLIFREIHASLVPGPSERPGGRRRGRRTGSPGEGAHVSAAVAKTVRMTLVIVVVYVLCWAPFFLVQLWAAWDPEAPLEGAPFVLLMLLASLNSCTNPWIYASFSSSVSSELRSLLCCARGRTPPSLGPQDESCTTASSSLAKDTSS

As usually defined, the inhibition is the change of the read-out against control, counted positive when it falls. On to `COc1cccc(-c2ccc(C(=O)N3Cc4ccc(C(=O)N5CCCN(C)CC5)n4Cc4ccccc43)cc2OC)c1` [Example 70, {10-[(2,3′-Dimethoxy[1,1′-biphenyl]-4-yl)carbonyl]-10,11-dihydro-5H-pyrrolo[2,1-c][1,4]benzodiazepin-3-yl}(4-methyl-1,4-diazepan-1-yl)methanone], for which the inhibition at 0.1 µM stood at 11%.
Regarding `CN1CCCN(C(=O)c2ccc3n2Cc2ccccc2N(C(=O)c2ccc(-c4cccc5ccccc45)cc2Cl)C3)CC1` [Example 71, {10-[2-Chloro-4-(1-naphthyl)benzoyl]-10,11-dihydro-5H-pyrrolo[2,1-c][1,4]benzodiazepin-3-yl}(4-methyl-1,4-diazepan-1-yl)methanone], the inhibition at 0.1 µM is 13%.
`COc1ccccc1-c1ccc(C(=O)N2Cc3ccc(C(=O)NCCCN(C)C)n3Cc3ccccc32)cc1C` [Example 72, N-[3-(Dimethylamino)propyl]-10-[(2′-methoxy-2-methyl[1,1′-biphenyl]-4-yl)carbonyl]-10,11-dihydro-5H-pyrrolo[2,1-c][1,4]benzodiazepine-3-carboxamide]: the inhibition at 0.1 µM was 26%.
The same measure, in the same setting: next, `Cc1ccccc1-c1ccc(C(=O)N2Cc3ccc(C(=O)NCCCN(C)C)n3Cc3ccccc32)cc1C` [Example 73, N-[3-(Dimethylamino)propyl]-10-[(2,2′-dimethyl[1,1′-biphenyl]-4-yl)carbonyl]-10,11-dihydro-5H-pyrrolo[2,1-c][1,4]benzodiazepine-3-carboxamide]: 21%; `COc1cccc(-c2ccc(C(=O)N3Cc4ccc(C(=O)NCCCN(C)C)n4Cc4ccccc43)cc2C)c1` [Example 74, N-[3-(Dimethylamino)propyl]-10-[(3′-methoxy-2-methyl[1,1′-biphenyl]-4-yl)carbonyl]-10,11-dihydro-5H-pyrrolo[2,1-c][1,4]benzodiazepine-3-carboxamide]: 14%; `COc1ccccc1-c1ccc(C(=O)N2Cc3ccc(C(=O)NCCCN(C)C)n3Cc3ccccc32)cc1` [Example 75, N-[3-(Dimethylamino)propyl]-10-[(2′-methoxy[1,1′-biphenyl]-4-yl)carbonyl]-10,11-dihydro-5H-pyrrolo[2,1-c][1,4]benzodiazepine-3-carboxamide]: 14%.
As to `Cc1ccccc1-c1ccc(C(=O)N2Cc3ccc(C(=O)NCCCN(C)C)n3Cc3ccccc32)cc1` [Example 76, N-[3-(Dimethylamino)propyl]-10-[(2′-methyl[1,1′-biphenyl]-4-yl)carbonyl]-10,11-dihydro-5H-pyrrolo[2,1-c][1,4]benzodiazepine-3-carboxamide], the inhibition at 0.1 µM was found to be 17%.
In the case of `COc1cc(C(=O)N2Cc3ccc(C(=O)NCCCN(C)C)n3Cc3ccccc32)ccc1-c1ccccc1C` [Example 77, N-[3-(Dimethylamino)propyl]-10-[(2-methoxy-2′-methyl[1,1′-biphenyl]-4-yl)carbonyl]-10,11-dihydro-5H-pyrrolo[2,1-c][1,4]benzodiazepine-3-carboxamide], the inhibition at 0.1 µM came to 28%.
On the same count and under the same terms, the same measure for `COc1cc(-c2ccccc2C)c(Cl)cc1C(=O)N1Cc2ccc(C(=O)NCCCN(C)C)n2Cc2ccccc21` [Example 78, 10-[(6-Chloro-3-methoxy-2′-methyl[1,1′-biphenyl]-4-yl)carbonyl]-N-[3-(dimethylamino)propyl]-10,11-dihydro-5H-pyrrolo[2,1-c][1,4]benzodiazepine-3-carboxamide]: 14%; for `CC(C)N1CCN(C(=O)c2ccc3n2Cc2ccccc2N(C(=O)c2ccc(-c4cccc5ccccc45)cc2Cl)C3)CC1` [Example 243, {10-[2-Chloro-4-(1-naphthyl)benzoyl]-10,11-dihydro-5H-pyrrolo[2,1-c][1,4]benzodiazepin-3-yl}(4-isopropyl-1-piperazinyl)methanone]: 21%; for `Cc1ccccc1-c1ccc(C(=O)N2Cc3ccc(C(=O)N4CCN(CCCN(C)C)CC4)n3Cc3ccccc32)cc1C` [Example 247, {4-[3-(Dimethylamino)propyl]-1-piperazinyl}{10-[(2,2′-dimethyl[1,1′-biphenyl]-4-yl)carbonyl]-10,11-dihydro-5H-pyrrolo[2,1-c][1,4]benzodiazepin-3-yl}methanone]: 21%.
Regarding `COc1cccc(-c2ccc(C(=O)N3Cc4ccc(C(=O)N5CCN(CCCN(C)C)CC5)n4Cc4ccccc43)cc2C)c1` [Example 248, {4-[3-(Dimethylamino)propyl]-1-piperazinyl}{10-[(3′-methoxy-2-methyl[1,1′-biphenyl]-4-yl)carbonyl]-10,11-dihydro-5H-pyrrolo[2,1-c][1,4]benzodiazepin-3-yl}methanone], the inhibition at 0.1 µM was 7%.
Turning to `Cc1ccccc1-c1ccc(C(=O)N2Cc3ccc(C(=O)N4CCN(CCCN(C)C)CC4)n3Cc3ccccc32)cc1` [Example 249, {4-[3-(Dimethylamino)propyl]-1-piperazinyl}{10-[(2′-methyl[1,1′-biphenyl]-4-yl)carbonyl]-10,11-dihydro-5H-pyrrolo[2,1-c][1,4]benzodiazepin-3-yl}methanone], the inhibition at 0.1 µM is 9%.
Same read-out and setting: the same measure for `COc1cc(C(=O)N2Cc3ccc(C(=O)N4CCN(CCCN(C)C)CC4)n3Cc3ccccc32)ccc1-c1ccccc1C` [Example 250, {4-[3-(Dimethylamino)propyl]-1-piperazinyl}{10-[(2-methoxy-2′-methyl[1,1′-biphenyl]-4-yl)carbonyl]-10,11-dihydro-5H-pyrrolo[2,1-c][1,4]benzodiazepin-3-yl}methanone]: -10%; for `COc1cc(-c2ccccc2C)c(Cl)cc1C(=O)N1Cc2ccc(C(=O)N3CCN(CCCN(C)C)CC3)n2Cc2ccccc21` [Example 251, {10-[(6-Chloro-3-methoxy-2′-methyl[1,1′-biphenyl]-4-yl)carbonyl]-10,11-dihydro-5H-pyrrolo[2,1-c][1,4]benzodiazepin-3-yl}{4-[3-(dimethylamino)propyl]-1-piperazinyl}methanone]: 24%.
On to `COc1cccc(-c2cc(OC)c(C(=O)N3Cc4ccc(C(=O)N5CCN(CCCN(C)C)CC5)n4Cc4ccccc43)cc2Cl)c1` [Example 252, {10-[(6-Chloro-3,3′-dimethoxy[1,1′-biphenyl]-4-yl)carbonyl]-10,11-dihydro-5H-pyrrolo[2,1-c][1,4]benzodiazepin-3-yl}{4-[3-(dimethylamino)propyl]-1-piperazinyl}methanone], for which the inhibition at 0.1 µM turned out to be 21%.
On the same count and under the same terms, the same measure for `COc1cc(C(=O)N2Cc3ccc(C(=O)N4CCN(CCCN(C)C)CC4)n3Cc3ccccc32)ccc1-c1cccc2ccccc12` [Example 253, {4-[3-(Dimethylamino)propyl]-1-piperazinyl}{10-[3-methoxy-4-(1-naphthyl)benzoyl]-10,11-dihydro-5H-pyrrolo[2,1-c][1,4]benzodiazepin-3-yl}methanone]: -10%; for `COc1ccccc1-c1ccc(C(=O)N2Cc3ccc(C(=O)N4CCN(CCCN(C)C)CC4)n3Cc3ccccc32)cc1OC` [Example 254, {10-[(2,2′-Dimethoxy[1,1′-biphenyl]-4-yl)carbonyl]-10,11-dihydro-5H-pyrrolo[2,1-c][1,4]benzodiazepin-3-yl}{4-[3-(dimethylamino)propyl]-1-piperazinyl}methanone]: -4%; for `COc1cccc(-c2ccc(C(=O)N3Cc4ccc(C(=O)N5CCN(CCCN(C)C)CC5)n4Cc4ccccc43)cc2OC)c1` [Example 255, {10-[(2,3′-Dimethoxy[1,1′-biphenyl]-4-yl)carbonyl]-10,11-dihydro-5H-pyrrolo[2,1-c][1,4]benzodiazepin-3-yl}{4-[3-(dimethylamino)propyl]-1-piperazinyl}methanone]: 27%.
As to `CN(C)CCCN1CCN(C(=O)c2ccc3n2Cc2ccccc2N(C(=O)c2ccc(-c4cccc5ccccc45)cc2Cl)C3)CC1` [Example 256, {10-[2-Chloro-4-(1-naphthyl)benzoyl]-10,11-dihydro-5H-pyrrolo[2,1-c][1,4]benzodiazepin-3-yl}{4-[3-(dimethylamino)propyl]-1-piperazinyl}methanone], the inhibition at 0.1 µM amounted to 40%.
For the molecule `Cc1cc(C(=O)N2Cc3ccc(C(=O)N4CCN(CCCN(C)C)CC4)n3Cc3ccccc32)ccc1-c1ccccc1C(F)(F)F` [Example 257, {10-[(2-Methyl-2′-trifluoromethyl-[1,1′-biphenyl]-4-yl)carbonyl]-10,11-dihydro-5H-pyrrolo[2,1-c][1,4]benzodiazepin-3-yl}{4-[3-(dimethylamino)propyl]-1-piperazinyl}-methanone], under “0.1 µM”, the “V2 % inhibition @ 100 nM” value turned out to be 16%.
With `Cc1cc(C(=O)N2Cc3ccc(C(=O)N[C@@H](Cc4c[nH]cn4)C(N)=O)n3Cc3ccccc32)ccc1-c1ccccc1C(F)(F)F` [Example 284, N-[(1S)-2-Amino-1-(1H-imidazol-4-ylmethyl)-2-oxoethyl]-10-{[2-methyl-2′-(trifluoromethyl)[1,1′-biphenyl]-4-yl]carbonyl}-10,11-dihydro-5H-pyrrolo[2,1-c][1,4]benzodiazepine-3-carboxamide], the inhibition at 0.1 µM came to 12%.
`COc1ccccc1-c1ccc(C(=O)N2Cc3ccc(C(=O)N[C@@H](Cc4c[nH]cn4)C(N)=O)n3Cc3ccccc32)cc1` [Example 285, N-[(1S)-2-Amino-1-(1H-imidazol-4-ylmethyl)-2-oxoethyl]-10-[(2′-methoxy[1,1′-biphenyl]-4-yl)carbonyl]-10,11-dihydro-5H-pyrrolo[2,1-c][1,4]benzodiazepine-3-carboxamide]: the inhibition at 0.1 µM was 32%.
As for `COc1ccccc1-c1ccc(C(=O)N2Cc3ccc(C(=O)N[C@@H](Cc4c[nH]cn4)C(N)=O)n3Cc3ccccc32)cc1OC` [Example 286, N-[(1S)-2-Amino-1-(1H-imidazol-4-ylmethyl)-2-oxoethyl]-10-[(2,2′-dimethoxy[1,1′-biphenyl]-4-yl)carbonyl]-10,11-dihydro-5H-pyrrolo[2,1-c][1,4]benzodiazepine-3-carboxamide], the inhibition at 0.1 µM came to 27%.
